# In patent publication US11654143B2, “Therapeutic combinations of a BTK inhibitor, a PI3K inhibitor, a JAK-2 inhibitor, and/or a BCL-2 inhibitor” (Acerta Pharma B.V., priority 2014, dated 2023):
# Tests used:
# [1] = tested on: GPVI platelet aggregation; assay: GPVI platelet aggregation studies; assay type: cell-based; conditions: FIG. 122
# [2] = tested on: human platelet-mediated thrombosis; assay: in vivo human thrombus formation in the VWF HA1 mice model; conditions: human platelets preincubated with BTK inhibitor, laser-induced injury
# [3] = preliminary evaluations of metabolism in plasma, bile, and urine; assay type: in vivo; conditions: rats, dogs, and monkeys
# [4] = study of respiratory function; conditions: rats, doses through 300 mg/kg
# CYP enzymes = assay: nonclinical CYP interaction studies; assay type: in vitro ADME
# CXCL12 [5] = assay: CXCL12 levels in treated patients; assay type: in vivo, human; conditions: FIG. 145
# CLL [6] = assay: apoptosis in treated CLL patients; assay type: in vivo, human; conditions: FIG. 144
# [7] = preliminary brain PK experiments, oral gavage; assay type: in vivo, Sprague-Dawley rats; conditions: 5 or 30 mg/kg/day oral
# Description: Two vehicle treated rats were sacrificed on each sampling day for comparison.
# EGFR = EGFR (Homo sapiens, UniProt P00533); assay: EGF-induced EGFR phosphorylation in A431 cells (phosphoflow); conditions: 10 μM, A431 human epidermoid cancer cell line
# Sequence of EGFR (P00533 25-1210): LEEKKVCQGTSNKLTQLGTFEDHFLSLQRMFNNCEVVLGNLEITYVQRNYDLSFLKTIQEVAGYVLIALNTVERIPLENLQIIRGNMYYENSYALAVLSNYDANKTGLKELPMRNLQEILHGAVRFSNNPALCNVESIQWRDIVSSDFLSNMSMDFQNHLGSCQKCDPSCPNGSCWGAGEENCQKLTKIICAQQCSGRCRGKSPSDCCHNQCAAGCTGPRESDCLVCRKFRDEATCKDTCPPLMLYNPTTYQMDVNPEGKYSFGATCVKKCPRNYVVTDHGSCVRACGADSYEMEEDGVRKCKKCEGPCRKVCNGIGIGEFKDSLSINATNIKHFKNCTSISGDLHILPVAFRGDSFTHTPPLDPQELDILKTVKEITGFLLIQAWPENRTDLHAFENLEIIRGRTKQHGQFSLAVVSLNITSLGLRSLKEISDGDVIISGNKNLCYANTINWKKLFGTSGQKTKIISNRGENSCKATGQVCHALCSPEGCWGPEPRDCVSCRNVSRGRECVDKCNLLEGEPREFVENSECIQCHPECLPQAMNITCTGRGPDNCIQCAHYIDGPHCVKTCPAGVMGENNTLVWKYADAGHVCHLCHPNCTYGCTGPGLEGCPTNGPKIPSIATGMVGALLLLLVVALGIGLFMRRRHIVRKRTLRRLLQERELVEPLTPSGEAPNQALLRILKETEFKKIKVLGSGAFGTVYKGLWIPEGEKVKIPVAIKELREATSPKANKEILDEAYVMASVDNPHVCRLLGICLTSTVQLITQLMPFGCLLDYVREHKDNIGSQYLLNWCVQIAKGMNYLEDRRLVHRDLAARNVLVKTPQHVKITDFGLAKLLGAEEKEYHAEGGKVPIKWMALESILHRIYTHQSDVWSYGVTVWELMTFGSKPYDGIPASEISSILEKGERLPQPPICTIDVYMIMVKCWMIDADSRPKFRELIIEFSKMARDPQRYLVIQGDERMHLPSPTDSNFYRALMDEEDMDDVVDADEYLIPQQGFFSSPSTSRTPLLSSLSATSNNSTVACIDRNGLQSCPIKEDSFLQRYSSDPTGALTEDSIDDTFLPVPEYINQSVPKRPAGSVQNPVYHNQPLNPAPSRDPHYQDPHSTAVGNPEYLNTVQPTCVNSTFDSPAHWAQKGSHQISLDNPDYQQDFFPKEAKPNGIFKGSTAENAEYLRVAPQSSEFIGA
# canine B cell lymphoma = assay: veterinary clinical trial in companion dogs with B cell lymphoma; assay type: in vivo
# Procedure: Enrollment has completed for both arms.
# Intra-subject dose escalation was allowed. Six of the 11 dogs that initiated at 2.5 or 5 mg/kg once daily were escalated and completed the study with dosages of 10 mg/kg twice daily. Among all the dose cohorts, 8 dogs had shrinkage of target lesions >20%; the best tumor responses were between 45-49% reduction in the sum of target lesions in two dogs. […] CR were defined as disappearance of all evidence of disease per evaluator judgment, and absence of new lesions. Vali, et al., Vet. Comp. Oncol. 2010, 8, 28-37.
# Of these, 7 dogs had shrinkage of target lesions >20%, providing evidence of biological activity for the combination; four of these dogs achieved a PR. […] The initial reductions in the sum of target lesions continued to deepen during the course of therapy in 7 of the 10 dogs.
# CLL [8] = assay: clinical study in CLL (ALC and SPD); assay type: in vivo, human; conditions: CLL patients, FIG. 125
# Description: J. Med. 2013, 369, 32-42.
# CLL [9] = conditions: human, in vivo
# Description: (§1) This study is a multicenter, open-label, nonrandomized, sequential group, dose escalation study. The following dose cohorts will be evaluated:
# (§2) Each cohort will be enrolled sequentially with 6 subjects per cohort. If ≤1 dose-limiting toxicity (DLT) is observed in the cohort during Cycle 1, escalation to the next cohort will proceed. Subjects may be enrolled in the next cohort if 4 of the 6 subjects enrolled in the cohort completed Cycle 1 without experiencing a DLT, while the remaining 2 subjects are completing evaluation. If ≥2 DLTs are observed during Cycle 1, dosing at that dose and higher will be suspended and the MTD will be established as the previous cohort. […] Dose escalation will end when either the MTD is achieved or at 3 dose levels above full BTK occupancy, whichever occurs first. […] Should escalation to Cohort 6 be necessary, the dose will be determined based on the aggregate data from Cohorts 1 to 5, which includes safety, efficacy, and PK/PD results. The dose for Cohort 6 will not exceed 900 mg/day.
# (§3) Dose-limiting toxicity is defined as any of the following events (if not related to disease progression): (1) any Grade ≥3 non-hematologic toxicity (except alopecia) persisting despite receipt of a single course of standard outpatient symptomatic therapy (e.g., Grade 3 diarrhea that responds to a single, therapeutic dose of Imodium® would not be considered a DLT); (2) grade ≥3 prolongation of the corrected QT interval (QTc), as determined by a central ECG laboratory overread; (3) grade 4 neutropenia (absolute neutrophil count [ANC]<500/μL) lasting >7 days after discontinuation of therapy without growth factors or lasting >5 days after discontinuation of therapy while on growth factors (i.e., Grade 4 neutropenia not lasting as long as specified will not be considered a DLT), (4) grade 4 thrombocytopenia (platelet count <20,000/μL) lasting >7 days after discontinuation of therapy or requiring transfusion (i.e., Grade 4 thrombocytopenia not lasting as long as specified will not be considered a DLT), and (5) dosing delay due to toxicity for >7 consecutive days.
# (§4) The study scheme is a sequential cohort escalation. Each cohort consists of six subjects. The sample size of the study is 24 to 36 subjects, depending on dose escalation into subsequent cohorts. […] The dose level for Cohort 6 will be determined based on the safety and efficacy of Cohorts 1 to 5, and will not exceed 900 mg/day. Escalation will end with either the MTD cohort or three levels above full BTK occupancy, whichever is observed first. An additional arm of the study will explore 100 mg BID dosing.
# (§5) The route of administration is oral (per os, or PO). The dose regimen is once daily or twice daily, as defined by the cohort, on an empty stomach (defined as no food 2 hours before and 30 minutes after dosing).
# CXCL12 [10] = assay: plasma chemokines in treated CLL patients; assay type: in vivo, human
# BTK [11] = biological target: T1, BTK (Mus musculus, UniProt P35991); assay: molecular probe assay, BTK occupancy in MDSCs from tumor bearing PDA mice; assay type: in vivo; conditions: 15 mg/kg BID, Day 8, 4 hours post dose, granulocytic and monocytic MDSC (N=5)
# T1 construct: MDSCs were purified from tumor bearing PDA mice; from tissue; host or cells: granulocytic and monocytic MDSCs purified from tumour-bearing PDA mice
# T1 sequence (P35991 whole entry): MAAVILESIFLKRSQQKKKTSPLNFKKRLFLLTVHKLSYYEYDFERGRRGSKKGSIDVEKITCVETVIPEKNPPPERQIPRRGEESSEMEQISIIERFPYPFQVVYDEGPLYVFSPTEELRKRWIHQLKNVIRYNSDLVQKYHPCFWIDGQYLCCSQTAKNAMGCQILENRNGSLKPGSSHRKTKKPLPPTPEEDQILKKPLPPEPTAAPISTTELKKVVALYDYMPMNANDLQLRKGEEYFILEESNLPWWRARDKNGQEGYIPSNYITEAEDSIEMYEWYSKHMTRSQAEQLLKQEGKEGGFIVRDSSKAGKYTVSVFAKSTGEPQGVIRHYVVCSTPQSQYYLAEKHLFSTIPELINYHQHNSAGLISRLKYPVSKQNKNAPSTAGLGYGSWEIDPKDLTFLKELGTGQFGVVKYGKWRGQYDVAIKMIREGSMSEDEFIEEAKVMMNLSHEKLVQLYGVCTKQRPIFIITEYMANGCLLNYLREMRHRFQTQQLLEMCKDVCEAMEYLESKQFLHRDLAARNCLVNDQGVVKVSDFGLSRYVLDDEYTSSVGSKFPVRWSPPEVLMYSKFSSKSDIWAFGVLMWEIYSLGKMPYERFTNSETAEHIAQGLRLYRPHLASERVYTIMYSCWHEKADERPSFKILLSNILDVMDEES
# Description: A molecular probe assay was used to calculate the percent irreversible occupancy of total BTK.
# NSCLC (KrasLA2) tumors = assay: genetic tumor model of NSCLC (KrasLA2); assay type: in vivo, mice; conditions: 15 mg/kg
# Description: The model is designed to have sporadic expression in single cells of G12D mutant Kras off its own promoter triggered by spontaneous intrachromosomal recombination. Johnson, et al. Nature 2001, 410, 1111-16. While the mutant Kras protein is expressed in a few cells in all tissues, tumor development is seen only in the lung at high penetrance.
# BTK [12] = biological target: BTK (Homo sapiens, UniProt Q06187); assay: BTK target occupancy in relapsed/refractory CLL patients; conditions: at lower dosage versus ibrutinib, FIG. 131
# Sequence of BTK (Homo sapiens, UniProt Q06187) (Q06187 whole entry): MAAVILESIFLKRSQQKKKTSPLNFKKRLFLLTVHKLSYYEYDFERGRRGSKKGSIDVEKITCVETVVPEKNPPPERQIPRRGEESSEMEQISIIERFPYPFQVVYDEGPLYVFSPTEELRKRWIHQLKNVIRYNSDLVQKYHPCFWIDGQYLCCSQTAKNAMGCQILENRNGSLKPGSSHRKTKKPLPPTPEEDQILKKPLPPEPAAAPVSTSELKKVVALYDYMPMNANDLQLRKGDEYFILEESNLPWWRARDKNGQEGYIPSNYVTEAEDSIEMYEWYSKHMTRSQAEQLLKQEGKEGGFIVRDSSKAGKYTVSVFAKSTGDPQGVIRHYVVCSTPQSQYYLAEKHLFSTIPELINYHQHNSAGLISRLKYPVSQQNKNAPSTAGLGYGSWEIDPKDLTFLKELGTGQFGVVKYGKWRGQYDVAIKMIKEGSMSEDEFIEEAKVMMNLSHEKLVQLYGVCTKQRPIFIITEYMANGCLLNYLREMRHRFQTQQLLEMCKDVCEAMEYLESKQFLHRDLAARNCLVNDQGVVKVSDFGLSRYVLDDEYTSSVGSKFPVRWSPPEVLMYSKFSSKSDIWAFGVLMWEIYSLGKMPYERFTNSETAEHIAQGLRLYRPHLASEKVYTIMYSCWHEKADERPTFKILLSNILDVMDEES
# [13] = glutathione binding and depletion in vitro; assay type: in vitro ADME
# [14] = tested on: expression of activation markers CD69 and CD86; assay: in vivo potency: mice gavaged, BCR stimulated with IgM, CD69 and CD86 monitored by flow cytometry; conditions: gavage, 3 h post-dose, versus ibrutinib, FIG. 124
# Procedure: Mice were gavaged at increasing drug concentration and sacrificed at one time point (3 h post-dose). BCR is stimulated with IgM and the expression of activation markers CD69 and CD86 are monitored by flow cytometry to determine EC50's.
# CCL2 [15] = assay: plasma chemokines in treated CLL patients; assay type: in vivo, human
# human platelets = assay: GPVI (convulxin-induced) platelet aggregation; assay type: cell-based; conditions: CVX-induced
# Procedure: GPVI platelet aggregation was measured for Formula (XVIII) and Formula (XX-A) (ibrutinib). Blood was obtained from untreated humans, and platelets were purified from […] by centrifugation. Cells were resuspended to a final concentration of 350,000/μL in buffer containing 145 mmol/L NaCl, 10 mmol/L HEPES, 0.5 mmol/L Na2HPO4, 5 mmol/L KCl, 2 mmol/L MgCl2, 1 mmol/L CaCl2), and 0.1% glucose, at pH 7.4. Stock solutions of […] were prepared on the day of experimentation and added to platelet suspensions 5 minutes (37° C., 1200 rpm) before the induction of aggregation. Aggregation was assessed with a Chronolog Lumi-Aggregometer (model 540 VS; Chronolog, Havertown, Pa.) and permitted to proceed for 6 minutes after the addition of agonist. The results are reported as maximum percent change in light transmittance from baseline with platelet buffer used as a reference.
# In FIG. 123, the results of CVX-induced (250 ng/mL) human platelet aggregation results before and 15 minutes after administration of the BTK inhibitors to 6 healthy individuals are shown.
# hepatocytes = assay: in vitro metabolism in hepatocytes with 14C-labeled drug; assay type: in vitro ADME, mouse, rat, dog, rabbit, monkey, and human
# CYP3A4 = CYP3A4 (Homo sapiens, UniProt P08684); assay: loss of parent drug as catalyzed by CYPs; assay type: in vitro ADME; conditions: in vitro loss of parent drug
# Sequence of CYP3A4 (P08684 whole entry): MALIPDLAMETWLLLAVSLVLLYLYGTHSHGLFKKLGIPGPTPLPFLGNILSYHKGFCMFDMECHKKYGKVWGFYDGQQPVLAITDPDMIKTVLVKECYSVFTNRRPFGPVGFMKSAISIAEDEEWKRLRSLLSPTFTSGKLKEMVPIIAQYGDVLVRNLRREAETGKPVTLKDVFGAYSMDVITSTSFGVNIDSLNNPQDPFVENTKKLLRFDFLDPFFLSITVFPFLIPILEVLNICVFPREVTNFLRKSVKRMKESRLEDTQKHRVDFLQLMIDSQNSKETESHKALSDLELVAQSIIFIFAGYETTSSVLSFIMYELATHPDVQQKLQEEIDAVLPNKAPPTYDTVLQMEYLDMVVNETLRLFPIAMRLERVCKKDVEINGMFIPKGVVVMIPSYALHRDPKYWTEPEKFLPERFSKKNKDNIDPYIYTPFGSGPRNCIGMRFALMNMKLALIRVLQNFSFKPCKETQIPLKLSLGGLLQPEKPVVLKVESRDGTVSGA
# [16] = cardiovascular function study in awake telemeterized beagle dogs; conditions: male beagle dogs, single doses through 30 mg/kg
# CLL [17] = assay: clinical study of Formula (XVIII) in relapsed/refractory CLL
# Description: as §1, §2, §3, §4, §5
# CCL2 [18] = assay: CCL2 levels in treated patients; assay type: in vivo, human; conditions: FIG. 146
# [19] = tested on: 80 known pharmacologic targets such as G-protein-coupled receptors, nuclear receptors, proteases, and ion channels; assay: binding assays with 80 known pharmacologic targets; conditions: screened at 10 μM
# [20] = functional observation battery (GLP safety pharmacology); conditions: rats, doses through 300 mg/kg
# B cell receptor = assay: whole blood anti-IgD stimulated CD69 on CD19+ B cells; assay type: cell-based; conditions: whole blood from four healthy donors, 2 hours compound, anti-human IgD 18 hours
# Procedure: Blood from four healthy donors was incubated for 2 hours with the compounds shown over a concentration range, and then stimulated with anti-human IgD [10 μg/mL] for 18 hours. The mean fluorescent intensity (MFI) of CD69 (and CD86, data not shown) on gated CD19+ B cells was measured by flow cytometry.
# [21] = within the tested dose range; cited from earlier work
smiles,measurement,setting,value
"C=CC(=O)N1CCC[C@@H](n2nc(-c3ccc(Oc4ccccc4)cc3)c3c(N)ncnc32)C1 [Formula (XX-A), reference compound]",IC50,[1]; Platelet,130 nM
"C=CC(=O)Nc1cccc(Nc2nc(Nc3ccc(OCCOC)cc3)ncc2F)c1 [Formula XXVII (CC-292), N-(3-((5-fluoro-2-((4-(2-methoxyethoxy)phenyl)amino)pyrimidin-4-yl)amino)phenyl)acrylamide, reference compound]",effect on human platelet-mediated thrombus formation,[2],effect similar to Formula (XX-A) (ibrutinib)
"CC#CC(=O)N1CCC[C@H]1c1nc(-c2ccc(C(=O)Nc3ccccn3)cc2)c2c(N)nccn12 [Formula (XVIII), (S)-4-(8-amino-3-(1-(but-2-ynoyl)pyrrolidin-2-yl)imidazo[1,5-a]pyrazin-1-yl)-N-(pyridin-2-yl)benzamide]","metabolic processes in plasma, bile, and urine",[3],"oxidation, glutathione binding, and hydrolysis"
same,respiratory function,[4],no treatment-related adverse effects
same,potential for clinical drug-drug interactions via CYP enzymes,CYP enzymes,very unlikely to cause clinical drug-drug interactions
same,effect on human platelet-mediated thrombus formation,[2],no significant effect
same,CXCL12 levels,CXCL12 [5],decrease
same,apoptosis,CLL [6],increased apoptosis
same,levels in the brain and CSF samples,[7],low but detectable levels
same,inhibition of in vitro EGFR phosphorylation,EGFR,no inhibition
same,complete responses (CR),"canine B cell lymphoma; Arm 1: 21 dogs, Arm 2: 10 dogs",not observed
same,dogs with shrinkage of target lesions >20%,"canine B cell lymphoma; Arm 1: 21 dogs, Arm 2: 10 dogs",8 dogs
same,Median time to best response,"canine B cell lymphoma; dog, in vivo",7 days
same,"best tumor responses, reduction in the sum of target lesions","canine B cell lymphoma; dog, in vivo",45-49%
same,absolute lymphocyte count (ALC),CLL [8]; relative to ibrutinib (Byrd et al. 2013),much smaller relative increase and much faster decrease
same,sum of the product of greatest diameters (SPD),CLL [8]; versus ibrutinib,decreases more rapidly
same,MTD,CLL [9],not reached
same,plasma CXCL12 levels,CXCL12 [10],significant decrease
same,irreversible occupancy of total BTK in MDSCs,BTK [11],Complete BTK occupancy
same,number of tumors,NSCLC (KrasLA2) tumors,fewer overall tumors
same,tumor volumes versus vehicle,NSCLC (KrasLA2) tumors,significant decrease
same,BTK target occupancy,BTK [12],improved BTK target occupancy
same,glutathione binding and depletion,[13],binds to glutathione but does not deplete glutathione
same,"in vivo potency, inhibition of expression of activation markers CD69 and CD86",[14],more potent at inhibiting expression of activation makers than ibrutinib
same,plasma CCL2 levels,CCL2 [15],significant decrease
same,inhibition of GPVI platelet aggregation,human platelets,does not
same,unique human metabolite,hepatocytes; hepatocytes,No unique human metabolite
same,metabolites in hepatocytes,"hepatocytes; mouse, rat, dog, rabbit, monkey, and human hepatocytes",two mono-oxidized metabolites and a glutathione conjugate
same,CYP responsible for metabolism,CYP3A4,metabolized by CYP3A4
same,"body temperature, cardiovascular, or ECG (including QT interval) parameters",[16],no meaningful changes
same,PD,CLL [17]; 100 mg BID (N = 3),0 (0) n (%)
same,PR,CLL [17]; 100 mg BID (N = 3),3 (100) n (%)
same,PR + L,CLL [17]; 100 mg BID (N = 3),0 (0) n (%)
same,PD,CLL [17]; 100 mg QD (N = 8),0 (0) n (%)
same,PR,CLL [17]; 100 mg QD (N = 8),7 (88) n (%)
same,PR + L,CLL [17]; 100 mg QD (N = 8),0 (0) n (%)
same,PD,CLL [17]; 175 mg QD (N = 8),0 (0) n (%)
same,PR,CLL [17]; 175 mg QD (N = 8),5 (63) n (%)
same,PR + L,CLL [17]; 175 mg QD (N = 8),3 (37) n (%)
same,PD,CLL [17]; 250 mg QD (N = 7),0 (0) n (%)
same,PR,CLL [17]; 250 mg QD (N = 7),5 (71) n (%)
same,PR + L,CLL [17]; 250 mg QD (N = 7),2 (29) n (%)
same,PD,CLL [17]; 400 mg QD (N = 5),0 (0) n (%)
same,PR,CLL [17]; 400 mg QD (N = 5),2 (40) n (%)
same,PR + L,CLL [17]; 400 mg QD (N = 5),2 (40) n (%)
same,PD,CLL [17]; All Cohorts (N = 31),0 (0) n (%)
same,PR,CLL [17]; All Cohorts (N = 31),22 (71) n (%)
same,PR + L,CLL [17]; All Cohorts (N = 31),7 (23) n (%)
same,treatment time at which median % change in SPD achieved the same status,"CLL [17]; CLL patients, present study",7 months
same,Headache (treatment-related adverse event),"CLL [17]; Grade 1/2, All (N = 44)",7 (16) n (%)
same,Diarrhea (treatment-related adverse event),"CLL [17]; Grade 1, All (N = 44)",4 (9) n (%)
same,Increased tendency to bruise (treatment-related adverse event),"CLL [17]; Grade 1, All (N = 44)",6 (14) n (%)
same,Petechiae (treatment-related adverse event),"CLL [17]; Grade 1, All (N = 44)",3 (7) n (%)
same,grade of AEs observed,"CLL [17]; human, in vivo",only grade 1 AEs
same,lymphocytosis,"CLL [17]; human, in vivo",A lack of lymphocytosis
same,dose-limiting toxicities (DLTs),CLL [17]; relapsed/refractory CLL,No DLTs
same,treatment-related serious adverse events (SAEs),CLL [17]; relapsed/refractory CLL,No treatment-related serious adverse events
same,progression in patients with the 17p deletion,CLL [17]; to date,no 17p patients have progressed
same,CCL2 levels,CCL2 [18],decrease
same,activity in binding assays with 80 known pharmacologic targets,[19],significant activity only against the A3 adenosine receptor
same,"neurobehavioral effects or body temperature, functional observation battery",[20],no adverse effects
same,EC50,B cell receptor; B-cell,8.2 nM
C=CC(=O)Nc1cccc(Nc2nc(Nc3ccc(OCCOC)cc3)ncc2F)c1 [CC-292],EC50,B cell receptor,121 nM
C=CC(=O)N1CCC[C@@H](n2nc(-c3ccc(Oc4ccccc4)cc3)c3c(N)ncnc32)C1 [ibrutinib],maximum tolerated dose (MTD),[21],No maximum tolerated dose
same,EC50,B cell receptor; B-cell,6.1 nM
CC#CC(=O)N1CCC[C@H]1c1nc(-c2ccc(C(=O)Nc3ccccn3)cc2)c2c(N)nccn12 [Formula XVIII],IC50,[1],1150 nM
